# Laboratory results reported in paper PMC11291776, “The development of ^177Lu-DOTA-CC-PSMA following a unified “Click Chemistry” protocol of synthesizing metal nuclide-conjugated radiopharmaceuticals” (EJNMMI Radiopharmacy and Chemistry, 2024).
# Test: Pharmacokinetics (blood radioactivity after i.v. injection)
# Format: in vivo
# Settings: healthy BALB/c male mice, i.v. 3.7 MBq, blood 2-240 min, DAS 2.0
# Experimental: ^177Lu-DOTA-CC-PSMA (3.7 MBq in 100 µL) or ^177Lu-PSMA-617 (3.7 MBq in 100 µL) was administered intravenously via the tail into BALB/c male mice (n = 6), and a venous blood sample (5 µL) was collected from the tail end of each mouse at different time points after injection (2, 4, 6, 10, 15, 30, 60, 120, and 240 min). The radioactivity of the blood samples was measured by γ-counter, and the pharmacokinetics data were obtained using the DAS 2.0 software.
structure (smiles),measurement,value
O=C([O-])CN1CCN(CC(=O)[O-])CCN(CC(=O)NCC2CCC(C(=O)N[C@@H](Cc3ccc4ccccc4c3)C(=O)NCCCC[C@H](NC(=O)N[C@@H](CCC(=O)O)C(=O)O)C(=O)O)CC2)CCN(CC(=O)[O-])CC1.[177Lu+3] (stereo partly shown) [^177Lu-PSMA-617],blood clearance half-life,17.18 min
